Assay [1] deals with T1, 20S proteasome (Homo sapiens) (UniProt P49721+P20618+P28074+P28062+P28065+P28072+P25786+P25787+P25788+P25789+P28066+P60900+O14818+Q8TAA3+P40306+A5LHX3+P49720+P28070+Q99436). As to the kind of experiment: Activation of human 20S proteasome chymotrypsin-like hydrolysis activity assessed as measuring fold increase in protein activity using SucLLVY-MCA as a fluorogenic substrate at 20 uM incubated for 1 hrs by fluorescence based assay relative to DMSO. The format is protein-complex assay.

Assay [2] deals with T1, 20S proteasome (Homo sapiens). Kind of assay: Activation of human 20S proteasome chymotrypsin-like hydrolysis activity assessed as measuring fold increase in protein activity using SucLLVY-MCA as a fluorogenic substrate at 10 uM incubated for 20 mins by fluorescence based assay relative to DMSO. The format is protein-complex assay. The settings on record: filed as activator.

The target is the same in assay [3]. Kind of assay: Activation of human 20S proteasome chymotrypsin-like hydrolysis activity assessed as concentration to doubling the protein activity using SucLLVY-MCA as a fluorogenic substrate measured after 1 hr by fluorescence based assay. The conditions noted are these: filed as activator. In kind it is protein-complex assay.
Assay [4] has the same target. As to the kind of experiment: Activation of human 20S proteasome trypsin-like hydrolysis activity assessed as concentration to doubling the protein activity using […] as a fluorogenic substrate measured after 1 hr by fluorescence based assay. The format is protein-complex assay. The conditions noted are these: filed as activator.
The target is the same in assay [5]. As to the kind of experiment: Activation of human 20S proteasome caspase-like hydrolysis activity assessed as concentration to doubling the protein activity using […] as a fluorogenic substrate measured after 1 hr by fluorescence based assay. The conditions noted are these: filed as activator. In kind it is protein-complex assay.
The target is the same in assay [6]. Kind of assay: Activation of human 20S proteasome mediated chymotrypsin-like proteolytic activity assessed as maximal fold increase in protein activity using SucLLVY-MCA as a fluorogenic substrate incubated for 1 hr by fluorescence based assay. The format is protein-complex assay. The conditions noted are these: filed as activator.
For assay [7] the target is unchanged. As to the kind of experiment: Activation of human 20S proteasome mediated trypsin-like proteolytic activity assessed as maximal fold increase in protein activity using […] as a fluorogenic substrate incubated for 1 hr by fluorescence based assay. The format is protein-complex assay. The settings on record: filed as activator.
Assay [8] has the same target. Kind of assay: Activation of human 20S proteasome mediated caspase-like proteolytic activity assessed as maximal fold increase in protein activity using […] as a fluorogenic substrate incubated for 1 hr by fluorescence based assay. In kind it is protein-complex assay. The settings on record: filed as activator.
Assay [9] addresses 26S proteasome (Homo sapiens) (UniProt Q99460+P49721+P20618+P28074+P28062+P28065+P28072+O00487+P25786+P25787+P25788+P25789+P28066+P60900+O14818+Q8TAA3+P40306+A5LHX3+P49720+P28070+Q99436+Q16186+P35998+P62191+P43686+P62333+P17980+P62195+Q13200+O43242+O00232+O00231+Q15008+P51665+Q9UNM6+P55036+P48556+P60896). As to the kind of experiment: Activation of human 26S proteasome mediated proteolytic hydrolysis activity using SucLLVY-AMC as a flurogenic substrate measured every minute for 1 hrs by fluorescence based assay. The format is protein-complex assay.

For assay [10], the target named is T1, 20S proteasome (Homo sapiens). As to the kind of experiment: Activation of human 20S proteasome assessed as alpha-synuclein degradation in presence of MG132 incubated for 20 mins by Western blot analysis. In kind it is protein-complex assay. On the technique in general: Immunoblotting shows a protein as a band on a membrane.
For assay [11] the target is unchanged. Kind of assay: Activation of 20S proteasome in human HeLa cells assessed as gate opening by measuring increase in membrane-permeable fluorescent probe signal pretreated for 20 hrs followed by treated with Me4BodipyFL-Ahx3Lue3VS probe for 2 hrs by flow cytometry relative to DMSO. In kind it is cell-based. The settings on record: filed as activator, time 22.0 hrs. (In flow cytometry, cells or beads pass a laser one at a time.)

The target is the same in assay [12]. Kind of assay: Activation of human 20S proteasome assessed as alpha-synuclein degradation incubated for 20 mins by Western blot analysis. In kind it is protein-complex assay. The settings on record: filed as activator.
Assay [13] has the same target. Kind of assay: Activation of human 20S proteasome chymotrypsin-like hydrolysis activity assessed as measuring fold increase in protein activity using SucLLVY-MCA as a fluorogenic substrate at 20 uM incubated for 20 mins by fluorescence based assay relative to DMSO. The settings on record: filed as activator. In kind it is protein-complex assay.

Calls of active or inactive are those of the source. No cut-off for these calls is given here. Peptide text beside a SMILES is read from it. * marks the point of attachment. Cbz = O=C(OCc1ccccc1)*

With `Cc1cc2c(C(C)C)c(O)c(O)c(C=O)c2c(O)c1-c1c(C)cc2c(C(C)C)c(O)c(O)c(C=O)c2c1O`, the fold change (FC) in assay [1] (filed as activator) worked out at 4.

`CC(C)=CCC/C(C)=C/CC/C(C)=C/CC/C(C)=C/CC1=C(C)C(=O)c2ccccc2C1=O`: the fold change (FC) in assay [1] (filed as activator) is 4.5.

For the compound `Cc1cc2nc3c(=O)[nH]c(=O)nc-3n(C[C@H](O)[C@H](O)[C@H](O)CO)c2cc1C`, the fold change (FC) in assay [1] (filed as activator) turned out to be 4.5.

As for `CCOC(=O)Oc1c(OC)cc(C(=O)O[C@@H]2C[C@@H]3CN4CCc5c([nH]c6cc(OC)ccc56)[C@H]4C[C@@H]3[C@H](C(=O)OC)[C@H]2OC)cc1OC`, the fold change (FC) in assay [1] (filed as activator) stood at 13; in assay [2] it was 12.5; in assay [6], 9.8; in [7] it was 8; in assay [8] it was 9.4. Besides, the CD was 1 µM in [3], 0.96 µM in assay [4] and 0.38 µM in assay [5]. In addition, in [9], the result was inactive. For the same compound, the outcome in assay [10] (filed as activator) and in assay [12] was Active. Further, the Activity in [11] turned out to be 2.84.

As for `CC(C)[C@@]1(NC(=O)[C@@H]2C[C@@H]3c4cccc5[nH]cc(c45)C[C@H]3N(C)C2)O[C@@]2(O)[C@@H]3CCCN3C(=O)[C@H](Cc3ccccc3)N2C1=O`, in assay [1] (filed as activator), the fold change (FC) turned out to be 8.

In the case of `O=C(O)[C@@H]1[C@H]2C[C@H]3c4[nH]c5ccccc5c4CCN3C[C@@H]2CC[C@@H]1O`, the fold change (FC) in assay [1] was under 3; in assay [2], 2.17.

Turning to `CC(C)C[C@@H](C=O)NC(=O)[C@H](CC(C)C)NC(=O)[C@H](CC(C)C)NC(=O)OCc1ccccc1` (Cbz-Leu-Leu-Leu-aldehyde), in assay [11], the Activity turned out to be 0.11.

In the case of `COc1ccc2c3c([nH]c2c1)[C@H]1C[C@H]2[C@H](C[C@@H](O)[C@H](OC)[C@H]2C(=O)O)CN1CC3`, the fold change (FC) in assay [1] was under 3; in assay [2], 2.73.

Consider RAUWOLFIA SERPENTINA, for which the fold change (FC) in assay [1] is under 3; in assay [2] it was 1.05.

For the compound `COC(=O)[C@H]1[C@H]2C[C@H]3c4[nH]c5ccccc5c4CCN3C[C@H]2CC[C@@H]1O`, the fold change (FC) in assay [1] is under 3; in assay [2], 1.32.

On to `C[C@H]1[C@H](C)CC[C@]2(C(=O)O)CC[C@]3(C)C(=CC[C@@H]4[C@@]5(C)CC[C@H](O)C(C)(C)[C@@H]5CC[C@]43C)[C@H]12`, for which the fold change (FC) in assay [1] (filed as activator) came to 6.5.

In the case of `CN1C[C@H](C(=O)N[C@]2(C)O[C@@]3(O)[C@@H]4CCCN4C(=O)[C@H](Cc4ccccc4)N3C2=O)C=C2c3cccc4[nH]cc(c34)C[C@H]21`, the fold change (FC) in [1] (filed as activator) is 7.2.

Turning to `COC(=O)[C@H]1/C(=N/O)CC[C@H]2CN3CCc4c([nH]c5ccccc45)[C@@H]3C[C@@H]21`, the results for the fold change (FC) in assay [1] and in assay [2] were under 3 and 1.49, respectively.

Consider `COC(=O)[C@H]1[C@H]2C[C@H]3c4[nH]c5ccccc5c4CCN3C[C@@H]2CC[C@@H]1O`, for which the fold change (FC) in assay [1] was under 3; in assay [2], 0.99.

Regarding `COc1cc(/C=C/C(=O)CC(=O)/C=C/c2ccc(O)c(OC)c2)ccc1O`, in assay [1] (filed as activator), the fold change (FC) is 5.4.

Regarding `CC(C)C[C@H]1C(=O)N2CCC[C@H]2[C@]2(O)O[C@](NC(=O)[C@@H]3C=C4c5cccc6[nH]cc(c56)C[C@H]4N(C)C3)(C(C)C)C(=O)N12`, the fold change (FC) in assay [1] (filed as activator) stood at 8.9.

With `COC(=O)[C@H]1[C@H]2C[C@@H]3c4[nH]c5cc(OC)ccc5c4CCN3C[C@H]2C[C@@H](OC(=O)c2cc(OC)c(OC)c(OC)c2)[C@@H]1OC`, the fold change (FC) was 7.9 in assay [1] (filed as activator); 7.91 in assay [2]; 4.8 in assay [6]; 7 in assay [7]; 7 in assay [8]. For the same compound, the CD turned out to be 1.6 µM in assay [3], 1.3 µM in assay [4] and 0.53 µM in [5]. Further, the outcome in [9] and in assay [10] was inactive. For the same compound, the outcome in assay [12] was Active.

For the compound `CN(C)CCCN1c2ccccc2Sc2ccc(Cl)cc21`, in [13], the fold change (FC) is 4.09. Moreover, the Activity in assay [11] was 1.29.

For `COC(=O)[C@@H]1[C@H]2C[C@H]3c4[nH]c5ccccc5c4CCN3C[C@@H]2CC[C@@H]1O`, the values for the fold change (FC) in [1] and in assay [2] were under 3 and 0.82, respectively.

Consider `CC(C)[C@H]1C(=O)N2CCC[C@H]2[C@]2(O)O[C@](NC(=O)[C@@H]3C[C@@H]4c5cccc6[nH]cc(c56)C[C@H]4N(C)C3)(C(C)C)C(=O)N12`, for which the fold change (FC) in [1] (filed as activator) was determined as 4.3.

As to `CC(C)C[C@H]1C(=O)N2CCC[C@H]2[C@]2(O)O[C@](NC(=O)[C@@H]3C=C4c5cccc6[nH]c(Br)c(c56)C[C@H]4N(C)C3)(C(C)C)C(=O)N12`, the fold change (FC) in assay [1] (filed as activator) turned out to be 6.7.
